Target: T1, serotonin transporter (SERT) (Mus musculus, UniProt Q60857)
T1 construct: gene Slc6a4
Test: fluoxetine-sensitive accumulation of fluorescent substrate ([…]) in HT22 cells
Type: cell-based

T1 sequence (Q60857 whole entry): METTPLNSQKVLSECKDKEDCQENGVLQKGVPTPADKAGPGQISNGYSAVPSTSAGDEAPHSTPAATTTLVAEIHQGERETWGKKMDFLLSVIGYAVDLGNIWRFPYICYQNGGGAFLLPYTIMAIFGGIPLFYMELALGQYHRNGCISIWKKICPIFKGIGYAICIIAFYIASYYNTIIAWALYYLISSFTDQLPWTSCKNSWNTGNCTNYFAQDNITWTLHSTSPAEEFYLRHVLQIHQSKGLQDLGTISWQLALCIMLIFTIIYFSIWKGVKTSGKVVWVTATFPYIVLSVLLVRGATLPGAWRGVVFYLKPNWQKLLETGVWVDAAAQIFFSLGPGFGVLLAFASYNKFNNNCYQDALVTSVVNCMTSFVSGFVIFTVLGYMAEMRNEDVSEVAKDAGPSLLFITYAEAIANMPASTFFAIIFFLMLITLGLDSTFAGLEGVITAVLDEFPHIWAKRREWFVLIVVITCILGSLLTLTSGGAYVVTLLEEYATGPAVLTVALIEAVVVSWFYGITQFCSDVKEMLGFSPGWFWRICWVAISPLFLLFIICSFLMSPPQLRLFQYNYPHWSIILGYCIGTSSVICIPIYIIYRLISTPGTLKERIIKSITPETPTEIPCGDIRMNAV

## CN(C)c1ccc(-c2cc[n+](C)cc2)cc1 [APP+, 4-(4-(dimethylamino)phenyl)-1-methylpyridinium iodide]
  fluoxetine-sensitive accumulation of fluorescent substrate (10 uM) in HT22 cells: A significant increase in APP^+ reuptake was detected in differentiated HT22 cells compared to undifferentiated cells

Source: article PMC9871236, “Differentiated HT22 cells as a novel model for in vitro screening of serotonin reuptake inhibitors” (Frontiers in Pharmacology, 2023)
